From ChEMBL document CHEMBL1201862, “PubChem BioAssay data set” (2004)
Active and inactive are the calls of the source.

Columns and labels:
[1] = inhibitors of firefly luciferase expression or activity, dose response, H4 neuroglioma cells, luminescence (AID 1990); type: functional, cell-based
[2] = Luminescence Cell-Based Dose Response HTS to Identify Inhibitors of 5'UTR Stem-Loop Driven Prion Protein mRNA Translation in H4 Neuroglioblastoma Cells. [Related pubchem assays: 1827 (Project Summary), 1813 (Primary HTS)]; type: functional
[3] = inhibitors of SNCA 5'UTR-driven reporter translation, confirmation, H4 neuroglioma cells, luminescence (AID 1988); type: functional, cell-based
[4] = cytotoxicity in HEK-293T cells, dose response, cytotoxicity control for BCR NF-kB inhibitor project, luminescence, B-cell screen hits (AID 489021); type: functional, cell-based;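 also: HEK-293T cells carrying an NF-kB luciferase reporter; cells exposed to compound for about 14 hours before viability readout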
Prothrombin = Prothrombin (Homo sapiens, UniProt P00734); test: Thrombin 1536 HTS Dose Response Confirmation. [Related pubchem assays: 1046 (Thrombin 1536 HTS; hits were confirmed in this assay)]; type: functional
Saccharomyces cerevisiae = test: NALP1 inhibitor project selectivity study, Caspase-1/ASC signal blockade IC50 in S. cerevisiae (AID 488863); type: functional, organism-based
[5] = molecular target: NACHT, LRR and PYD domains-containing protein 1 (Homo sapiens, UniProt Q9C000); test: NALP1 inhibitors in yeast, dose response, luminescent (AID 488860); type: functional
Mu-type opioid receptor [6] = molecular target: T1, Mu-type opioid receptor (Homo sapiens, UniProt P35372); test: MOR agonists by imaging, SAR follow-up, image-based (AID 2352); type: functional
[7] = molecular target: T2, Delta-type opioid receptor (Homo sapiens, UniProt P41143); test: DOR agonists, SAR follow-up, image-based (AID 2370); type: functional
[8] = molecular target: T3, Kappa-type opioid receptor (Homo sapiens, UniProt P41145); test: KOR antagonists by imaging, SAR follow-up, image-based (AID 2348); type: functional
Mu-type opioid receptor [9] = molecular target: T1, Mu-type opioid receptor; test: MOR antagonists, SAR follow-up, image-based (AID 2420); type: functional;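 also: compounds added before stimulation of receptor with agonist DAMGO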
[10] = molecular target: T3, Kappa-type opioid receptor; test: KOR agonist analogs, imaging readout, SAR follow-up, image-based (AID 2359); type: functional
[11] = molecular target: T2, Delta-type opioid receptor; test: DOR antagonists, SAR follow-up, image-based (AID 2357); type: functional
[12] = molecular target: T3, Kappa-type opioid receptor; test: kappa opioid receptor blockers, cell-based, luminescence, beta-arrestin, SAR follow-up (AID 2285); type: functional
[13] = molecular target: DNA dC->dU-editing enzyme APOBEC-3A (Homo sapiens, UniProt P31941); test: APOBEC3A DNA deaminase inhibitors, dose response, biochemical (AID 504722); type: functional
[14] = molecular target: DNA dC->dU-editing enzyme APOBEC-3G (Homo sapiens, UniProt Q9HC16); test: Dose Response confirmation of small molecule APOBEC3G DNA Deaminase Inhibitors via a fluorescence-based single-stranded DNA deaminase assay. [Related pubchem assays (depositor defined):AID493012, AID493028]; type: functional
[15] = molecular target: FAD-linked sulfhydryl oxidase ALR (Homo sapiens, UniProt P55789); test: inhibitors of human ALR sulfhydryl oxidase, dose response, biochemical, H2O2 detection, luminescence, cherry-pick (AID 493248)
[16] = molecular target: Diphosphomevalonate decarboxylase (Streptococcus pneumoniae serotype 2 (strain D39 / NCTC 7466), UniProt Q9FD53); test: S. pneumoniae DPM-DC inhibition retest, confirmation, biochemical, cuvette format, coupled NADH fluorescence (AID 1028); type: functional
[17] = molecular target: T4, Mannose-6-phosphate isomerase (Homo sapiens, UniProt P34949); test: PMI enzyme inhibitors, confirmation, biochemical, fluorescence intensity (AID 1535)
T4 sequence (P34949 whole entry): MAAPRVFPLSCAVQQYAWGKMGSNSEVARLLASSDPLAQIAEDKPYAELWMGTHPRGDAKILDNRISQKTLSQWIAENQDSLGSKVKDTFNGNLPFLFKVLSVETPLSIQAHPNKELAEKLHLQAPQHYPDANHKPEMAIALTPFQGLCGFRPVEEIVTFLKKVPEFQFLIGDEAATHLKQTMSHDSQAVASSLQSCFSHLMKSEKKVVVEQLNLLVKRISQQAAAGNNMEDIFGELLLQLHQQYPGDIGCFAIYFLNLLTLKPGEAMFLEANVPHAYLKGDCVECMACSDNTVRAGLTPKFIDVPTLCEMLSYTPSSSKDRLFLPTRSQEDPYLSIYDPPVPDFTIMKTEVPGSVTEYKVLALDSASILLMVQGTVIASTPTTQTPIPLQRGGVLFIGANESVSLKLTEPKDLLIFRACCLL

Phosphomannomutase 2 = Phosphomannomutase 2 (Homo sapiens, UniProt O15305); test: Counter screen SAR assay for PMM2 inhibitors via a fluorescence intensity assay. [Related pubchem assays (depositor defined):AID1545, AID1574]
[18] = molecular target: Phosphoethanolamine/phosphocholine phosphatase (Homo sapiens, UniProt Q8TCT1); test: SAR assay for compounds that inhibit PHOSPHO1. [Related pubchem assays (depositor defined):AID1545, AID1565, AID1574]
[19] = molecular target: T5, Alkaline phosphatase, tissue-nonspecific isozyme (Homo sapiens, UniProt P05186); test: human TNAP enzyme inhibitors, SAR follow-up, biochemical, luminescent, dose response (AID 1056)
T5 sequence (P05186 whole entry): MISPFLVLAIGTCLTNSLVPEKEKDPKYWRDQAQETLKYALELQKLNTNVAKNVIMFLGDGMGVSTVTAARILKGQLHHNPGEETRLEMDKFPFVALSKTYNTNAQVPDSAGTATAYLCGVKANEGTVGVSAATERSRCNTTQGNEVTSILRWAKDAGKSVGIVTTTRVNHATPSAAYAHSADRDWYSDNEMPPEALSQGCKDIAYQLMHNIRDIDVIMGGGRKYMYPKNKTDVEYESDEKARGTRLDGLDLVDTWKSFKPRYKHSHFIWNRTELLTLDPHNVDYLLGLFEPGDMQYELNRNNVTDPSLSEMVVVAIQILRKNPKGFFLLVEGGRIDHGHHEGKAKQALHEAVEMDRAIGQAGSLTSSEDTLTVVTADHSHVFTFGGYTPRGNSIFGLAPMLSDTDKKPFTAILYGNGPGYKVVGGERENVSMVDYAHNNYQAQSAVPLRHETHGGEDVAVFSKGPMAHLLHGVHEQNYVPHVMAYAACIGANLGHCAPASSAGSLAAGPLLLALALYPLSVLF

[20] = molecular target: Peroxisome proliferator-activated receptor gamma/Nuclear receptor coactivator 2 (Homo sapiens, UniProt P37231); type: functional;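 also: agonist potency for raising coactivator recruitment to the receptor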
[21] = molecular target: Peroxisome proliferator-activated receptor gamma/Nuclear receptor coactivator 1 (Homo sapiens, UniProt P37231); type: functional;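 also: agonist potency as compounds enhance coactivator SRC-1 recruitment to PPARgamma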
[22] = molecular target: T6, RNA-binding protein pos-1 (Caenorhabditis elegans, UniProt G5EF15); test: inhibitors of POS-1/mex-3 RNA binding, dose response, biochemical, fluorescence polarization (AID 1964);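 also: purified POS-1 fused to maltose binding protein made in E. coli; potency of compounds blocking POS-1 binding to fluorescent RNA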
T6 sequence (G5EF15 whole entry): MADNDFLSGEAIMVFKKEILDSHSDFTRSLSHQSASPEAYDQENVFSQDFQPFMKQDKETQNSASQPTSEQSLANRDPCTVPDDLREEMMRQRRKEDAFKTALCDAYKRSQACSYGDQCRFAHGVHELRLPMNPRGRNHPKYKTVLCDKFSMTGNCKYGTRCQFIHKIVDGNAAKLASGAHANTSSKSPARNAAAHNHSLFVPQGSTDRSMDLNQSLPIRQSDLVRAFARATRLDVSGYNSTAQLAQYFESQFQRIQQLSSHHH

[23] = system: Streptococcus sp. 'group A'; test: growth inhibition of control SK(-) GAS strain, dose response, counter-screen for streptokinase expression inhibitor project, luminescence, kanamycin, BacTiterGlo, confirmation (AID 1900); type: functional, organism-based
[24] = molecular target: Peroxisome proliferator-activated receptor gamma/Nuclear receptor coactivator 3 (Homo sapiens, UniProt P37231); type: functional;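 also: agonist potency for raising coactivator recruitment to the receptor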
[25] = molecular target: T7, Zinc finger protein mex-5 (Caenorhabditis elegans, UniProt Q9XUB2); test: MEX-5/TCR-2 RNA interaction inhibitors, dose response, biochemical, C. elegans, fluorescence polarization (AID 1960)
T7 sequence (Q9XUB2 whole entry): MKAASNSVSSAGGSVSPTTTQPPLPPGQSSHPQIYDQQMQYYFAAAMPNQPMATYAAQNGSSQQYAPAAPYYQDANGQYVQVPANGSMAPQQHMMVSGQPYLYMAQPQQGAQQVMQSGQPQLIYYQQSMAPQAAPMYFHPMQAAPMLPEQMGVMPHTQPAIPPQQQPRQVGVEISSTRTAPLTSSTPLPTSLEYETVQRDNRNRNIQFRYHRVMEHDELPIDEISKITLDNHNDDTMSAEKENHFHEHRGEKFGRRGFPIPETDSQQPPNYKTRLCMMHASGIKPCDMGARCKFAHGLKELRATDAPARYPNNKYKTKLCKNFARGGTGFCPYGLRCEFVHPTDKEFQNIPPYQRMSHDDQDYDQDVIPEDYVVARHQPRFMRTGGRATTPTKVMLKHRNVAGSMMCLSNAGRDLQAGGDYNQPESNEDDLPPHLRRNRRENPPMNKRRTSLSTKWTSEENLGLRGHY

Streptokinase A = molecular target: T8, Streptokinase A (Streptococcus pyogenes serotype M1, UniProt P10520); test: S. pyogenes streptokinase expression inhibitors, potency, dose response, plasminogen activation absorbance, OD405 (AID 1914); type: functional, Streptococcus pyogenes M1 GAS;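 also: secreted streptokinase activity via plasminogen activation per viability signal from cell pellet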
T8 sequence (P10520 whole entry): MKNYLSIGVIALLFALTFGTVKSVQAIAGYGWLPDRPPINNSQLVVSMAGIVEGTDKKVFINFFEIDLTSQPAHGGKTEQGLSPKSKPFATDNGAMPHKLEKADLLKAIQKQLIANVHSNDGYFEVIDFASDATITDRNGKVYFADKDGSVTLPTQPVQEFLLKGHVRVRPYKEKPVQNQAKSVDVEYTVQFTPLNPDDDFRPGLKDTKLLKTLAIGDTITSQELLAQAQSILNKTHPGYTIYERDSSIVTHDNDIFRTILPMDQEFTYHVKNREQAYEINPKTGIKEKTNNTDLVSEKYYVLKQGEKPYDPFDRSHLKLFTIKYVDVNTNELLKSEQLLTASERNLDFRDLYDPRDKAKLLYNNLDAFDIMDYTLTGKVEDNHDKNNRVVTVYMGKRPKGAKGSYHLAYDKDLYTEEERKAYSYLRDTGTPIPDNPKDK

Streptococcus = test: Group A Streptococcus viability loss, dose response, counter-screen for streptokinase expression inhibitor project, luminescence, BacTiterGlo (AID 1915); type: functional, organism-based;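 also: potency for reduction of bacterial viability or growth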
[26] = molecular target: Scavenger receptor class B member 1 (Mus musculus, UniProt Q61009); test: inhibitors of SR-BI mediated HDL lipid uptake, dose response, ldlA[mSR-BI] cells, fluorescence, cherry pick (AID 493194); type: functional, cell-based;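 also: cellular uptake of fluorescent DiI-labeled HDL measured as cell fluorescence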

T3 sequence (P41145 whole entry): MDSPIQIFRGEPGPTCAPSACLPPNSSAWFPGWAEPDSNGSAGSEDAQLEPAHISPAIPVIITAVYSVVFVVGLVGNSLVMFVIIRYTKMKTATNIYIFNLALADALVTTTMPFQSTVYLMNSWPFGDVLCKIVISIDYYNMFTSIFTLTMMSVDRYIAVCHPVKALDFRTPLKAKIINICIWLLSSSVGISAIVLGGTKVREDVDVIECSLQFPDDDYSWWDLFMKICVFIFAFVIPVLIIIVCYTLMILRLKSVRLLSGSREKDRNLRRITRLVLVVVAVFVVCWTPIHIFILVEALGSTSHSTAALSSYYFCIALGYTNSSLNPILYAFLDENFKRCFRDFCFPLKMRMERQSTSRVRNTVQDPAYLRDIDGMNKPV
T2 sequence (P41143 whole entry): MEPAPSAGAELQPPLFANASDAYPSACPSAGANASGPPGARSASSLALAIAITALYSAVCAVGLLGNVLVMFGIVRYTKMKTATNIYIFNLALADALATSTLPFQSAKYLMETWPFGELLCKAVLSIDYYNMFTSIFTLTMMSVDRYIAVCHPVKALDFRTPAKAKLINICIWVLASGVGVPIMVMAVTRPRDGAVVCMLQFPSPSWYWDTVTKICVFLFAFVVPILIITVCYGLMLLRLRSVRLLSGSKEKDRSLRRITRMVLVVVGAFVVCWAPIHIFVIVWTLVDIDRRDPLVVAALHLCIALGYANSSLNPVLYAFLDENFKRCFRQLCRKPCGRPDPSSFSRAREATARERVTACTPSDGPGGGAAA
T1 sequence (P35372 whole entry): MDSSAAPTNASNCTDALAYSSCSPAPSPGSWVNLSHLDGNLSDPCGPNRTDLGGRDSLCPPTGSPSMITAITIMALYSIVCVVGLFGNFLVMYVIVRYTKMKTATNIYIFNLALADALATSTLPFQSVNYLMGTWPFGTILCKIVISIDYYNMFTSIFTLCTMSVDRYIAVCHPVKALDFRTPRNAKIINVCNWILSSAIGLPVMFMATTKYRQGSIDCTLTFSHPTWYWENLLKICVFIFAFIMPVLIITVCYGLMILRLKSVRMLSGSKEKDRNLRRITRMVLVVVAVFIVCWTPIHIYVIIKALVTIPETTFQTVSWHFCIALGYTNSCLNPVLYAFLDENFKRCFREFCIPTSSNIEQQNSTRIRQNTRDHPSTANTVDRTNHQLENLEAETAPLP
Chain of Peroxisome proliferator-activated receptor gamma/Nuclear receptor coactivator 3 (P37231 whole entry): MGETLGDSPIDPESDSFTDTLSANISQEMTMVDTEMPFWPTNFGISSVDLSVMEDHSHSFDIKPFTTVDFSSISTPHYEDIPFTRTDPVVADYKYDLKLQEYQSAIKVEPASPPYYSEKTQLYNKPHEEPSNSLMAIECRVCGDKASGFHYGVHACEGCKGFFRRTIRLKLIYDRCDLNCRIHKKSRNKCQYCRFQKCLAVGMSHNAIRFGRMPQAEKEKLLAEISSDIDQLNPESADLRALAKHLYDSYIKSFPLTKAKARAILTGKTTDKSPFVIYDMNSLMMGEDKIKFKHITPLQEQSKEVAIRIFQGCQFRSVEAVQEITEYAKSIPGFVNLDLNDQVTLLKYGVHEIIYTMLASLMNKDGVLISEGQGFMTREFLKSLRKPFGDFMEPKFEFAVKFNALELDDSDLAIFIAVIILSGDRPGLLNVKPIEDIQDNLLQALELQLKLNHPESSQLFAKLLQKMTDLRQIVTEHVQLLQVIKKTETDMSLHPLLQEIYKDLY
Chain of Peroxisome proliferator-activated receptor gamma/Nuclear receptor coactivator 3 (Q9Y6Q9 whole entry, further chain): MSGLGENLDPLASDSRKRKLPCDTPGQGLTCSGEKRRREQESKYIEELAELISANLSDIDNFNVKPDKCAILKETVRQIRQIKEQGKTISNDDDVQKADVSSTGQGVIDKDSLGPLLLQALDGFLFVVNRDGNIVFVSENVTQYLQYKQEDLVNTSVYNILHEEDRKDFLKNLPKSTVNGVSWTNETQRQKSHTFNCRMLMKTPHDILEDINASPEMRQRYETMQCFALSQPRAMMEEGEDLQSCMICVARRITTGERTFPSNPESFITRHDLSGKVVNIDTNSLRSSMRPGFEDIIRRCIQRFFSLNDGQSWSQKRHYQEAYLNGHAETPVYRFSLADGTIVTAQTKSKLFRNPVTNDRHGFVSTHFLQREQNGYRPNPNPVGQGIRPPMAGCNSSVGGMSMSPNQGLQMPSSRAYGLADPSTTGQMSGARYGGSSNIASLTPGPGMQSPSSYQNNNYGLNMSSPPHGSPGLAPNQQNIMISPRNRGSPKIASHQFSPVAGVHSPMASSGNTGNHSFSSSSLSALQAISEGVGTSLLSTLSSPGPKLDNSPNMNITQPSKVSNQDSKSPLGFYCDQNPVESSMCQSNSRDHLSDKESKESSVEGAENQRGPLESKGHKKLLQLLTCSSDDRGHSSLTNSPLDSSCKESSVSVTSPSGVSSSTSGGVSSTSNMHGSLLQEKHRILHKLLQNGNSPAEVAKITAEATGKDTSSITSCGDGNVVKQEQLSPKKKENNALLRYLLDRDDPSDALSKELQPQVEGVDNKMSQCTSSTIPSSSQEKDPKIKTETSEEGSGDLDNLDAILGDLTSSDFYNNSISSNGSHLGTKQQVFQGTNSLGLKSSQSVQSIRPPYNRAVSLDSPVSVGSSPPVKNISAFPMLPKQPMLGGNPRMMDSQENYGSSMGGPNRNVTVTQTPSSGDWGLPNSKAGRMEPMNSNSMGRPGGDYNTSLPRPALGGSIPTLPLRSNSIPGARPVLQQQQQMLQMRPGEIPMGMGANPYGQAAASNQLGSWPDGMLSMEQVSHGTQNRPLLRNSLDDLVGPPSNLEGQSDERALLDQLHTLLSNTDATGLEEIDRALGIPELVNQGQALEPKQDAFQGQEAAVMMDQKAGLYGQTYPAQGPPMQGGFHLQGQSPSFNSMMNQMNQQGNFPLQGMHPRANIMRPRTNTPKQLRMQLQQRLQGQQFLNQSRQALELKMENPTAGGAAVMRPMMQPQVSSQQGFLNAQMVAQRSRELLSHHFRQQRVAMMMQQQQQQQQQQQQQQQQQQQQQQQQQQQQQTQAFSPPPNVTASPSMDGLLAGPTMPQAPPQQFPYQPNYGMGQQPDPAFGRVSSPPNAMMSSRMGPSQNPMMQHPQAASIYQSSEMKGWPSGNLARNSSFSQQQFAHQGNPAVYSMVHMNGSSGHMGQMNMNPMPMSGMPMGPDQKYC
Chain of Peroxisome proliferator-activated receptor gamma/Nuclear receptor coactivator 2 (P37231 whole entry): as the sequence (P37231 whole entry) above
Chain of Peroxisome proliferator-activated receptor gamma/Nuclear receptor coactivator 2 (Q15596 whole entry, further chain): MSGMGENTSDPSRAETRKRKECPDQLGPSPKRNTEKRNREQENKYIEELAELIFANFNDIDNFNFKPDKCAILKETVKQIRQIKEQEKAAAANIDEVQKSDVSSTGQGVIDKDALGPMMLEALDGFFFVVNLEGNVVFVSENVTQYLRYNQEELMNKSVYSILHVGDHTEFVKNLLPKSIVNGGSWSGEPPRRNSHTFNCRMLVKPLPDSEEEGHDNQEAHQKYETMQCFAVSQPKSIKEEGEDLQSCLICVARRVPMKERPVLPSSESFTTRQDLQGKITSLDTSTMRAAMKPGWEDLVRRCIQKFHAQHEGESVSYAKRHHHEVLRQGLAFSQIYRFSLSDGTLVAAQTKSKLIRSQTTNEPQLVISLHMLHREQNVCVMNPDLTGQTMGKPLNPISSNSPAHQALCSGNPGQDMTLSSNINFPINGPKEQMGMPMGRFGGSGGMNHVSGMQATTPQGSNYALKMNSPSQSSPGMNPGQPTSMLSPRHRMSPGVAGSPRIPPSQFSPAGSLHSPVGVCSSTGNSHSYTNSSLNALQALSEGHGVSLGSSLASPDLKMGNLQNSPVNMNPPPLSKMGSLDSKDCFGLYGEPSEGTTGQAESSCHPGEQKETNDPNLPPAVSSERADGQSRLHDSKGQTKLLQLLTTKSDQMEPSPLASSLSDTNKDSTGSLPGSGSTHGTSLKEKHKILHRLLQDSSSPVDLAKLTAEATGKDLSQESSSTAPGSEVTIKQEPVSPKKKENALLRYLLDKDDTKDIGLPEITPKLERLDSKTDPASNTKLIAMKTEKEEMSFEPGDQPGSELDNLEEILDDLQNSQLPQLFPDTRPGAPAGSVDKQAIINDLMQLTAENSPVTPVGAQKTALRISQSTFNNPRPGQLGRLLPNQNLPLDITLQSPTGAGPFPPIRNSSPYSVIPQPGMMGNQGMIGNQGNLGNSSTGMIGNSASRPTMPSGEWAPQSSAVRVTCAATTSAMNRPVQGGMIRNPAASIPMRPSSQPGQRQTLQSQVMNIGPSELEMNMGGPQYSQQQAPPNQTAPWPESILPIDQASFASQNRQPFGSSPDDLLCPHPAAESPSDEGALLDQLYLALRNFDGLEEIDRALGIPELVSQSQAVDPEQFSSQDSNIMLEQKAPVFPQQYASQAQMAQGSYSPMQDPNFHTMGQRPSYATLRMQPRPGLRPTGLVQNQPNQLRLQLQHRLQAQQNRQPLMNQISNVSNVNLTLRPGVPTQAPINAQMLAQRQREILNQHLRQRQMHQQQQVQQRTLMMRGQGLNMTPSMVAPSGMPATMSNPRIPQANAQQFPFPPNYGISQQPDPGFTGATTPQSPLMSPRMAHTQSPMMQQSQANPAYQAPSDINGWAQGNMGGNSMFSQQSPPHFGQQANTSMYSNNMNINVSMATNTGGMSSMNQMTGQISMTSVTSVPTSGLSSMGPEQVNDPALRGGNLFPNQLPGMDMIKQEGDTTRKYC

**Q.** Which results are given for `Cc1ccc(C(=O)NNC(=O)CCCN2C(=O)/C(=C/c3ccccc3Cl)SC2=S)cc1`?
**A.** EC50 [1]: 10.8 µM (active); EC50 [2]: > 120 µM (not active); EC50 [3]: 14 µM (active); IC50 [4]: > 80 µM (inactive)

**Q.** Which IC50 (Prothrombin) does the source give for `COCC(=O)n1nc(-c2ccc(Cl)cc2)nc1NCc1ccc(F)cc1` here?
**A.** 1.8 µM (active)

**Q.** What about the IC50 (Saccharomyces cerevisiae) of the same compound?
**A.** > 100 µM (inactive)

**Q.** What about the IC50 [5] of the same compound?
**A.** > 100 µM (inactive)

**Q.** For `Oc1c(C=Nc2cccc3cccnc23)sc2ccccc12`, which EC50 (Mu-type opioid receptor [6]) is on record?
**A.** > 32 µM (inactive)

**Q.** And the EC50 [7]?
**A.** > 32 µM (inactive)

**Q.** What about the IC50 [8] of the same compound?
**A.** 533 nM (active)

**Q.** What about the IC50 (Mu-type opioid receptor [9]) of the same compound?
**A.** 897 nM (active)

**Q.** What about the EC50 [10] of the same compound?
**A.** > 32 µM (inactive)

**Q.** What about the IC50 [11] of the same compound?
**A.** 1.01 µM (active)

**Q.** And the IC50 [12]?
**A.** 8.77 µM (active)

**Q.** For `CCn1c(-c2ccc(Cl)cc2)n[nH]c1=S`, which IC50 [13] is on record?
**A.** > 100 µM (inactive)

**Q.** What about the IC50 [14] of the same compound?
**A.** 5.43 µM (active)

**Q.** And the AC50 [15]?
**A.** 6.5 µM (active)

**Q.** With `O=C(NCc1ccccc1)c1cccc(-n2sc3ccccc3c2=O)c1` as the compound, how does the IC50 [16] read?
**A.** 4.74 µM (active)

**Q.** What about the IC50 [17] of the same compound?
**A.** 2.25 µM (active)

**Q.** What about the IC50 (Phosphomannomutase 2) of the same compound?
**A.** 17.8 µM (active)

**Q.** And the IC50 [18]?
**A.** 2.33 µM (inactive)

**Q.** And the IC50 [19]?
**A.** > 100 µM (inactive)

**Q.** With `Cc1cc(C)c2c(c1)NC(c1cc3c(cc1Br)OCO3)C1CC=CC21` (stereo unspecified) as the compound, how does the EC50 [20] read?
**A.** > 79.4 µM (not active)

**Q.** What about the EC50 [21] of the same compound?
**A.** > 79.4 µM (not active)

**Q.** And the EC50 [22]?
**A.** > 300 µM (not active)

**Q.** What about the EC50 [23] of the same compound?
**A.** 5.11 µM (active)

**Q.** What about the EC50 [24] of the same compound?
**A.** > 79.4 µM (not active)

**Q.** What about the EC50 [25] of the same compound?
**A.** > 300 µM (not active)

**Q.** What about the EC50 (Streptokinase A) of the same compound?
**A.** > 150 µM (not active)

**Q.** What about the EC50 (Streptococcus) of the same compound?
**A.** 114 µM (active)

**Q.** And the AC50 [26]?
**A.** 19 µM (active)
